According to patent EP4389751A1, “HETEROCYCLIC COMPOUNDS AND USES THEREOF” (Kumquat Biosciences Inc., priority 2021, dated 2024):
Read-outs that look alike come from different tables or passages of the source.

Tests used:
GP2D cells = test: Cell proliferation assay (CellTiter-Glo), K-Ras G12D cells; assay type: cell-based; details: GP2D cells (K-Ras G12D); read-out: Inhibition of GP2D Cells (IC50)
In short: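 CellTiter-Glo luminescence, taken roughly 5 days after dosing, measured growth of G12D-mutant GP2D cells in DMEM/2 mM glutamine/10% FBS. Compound dilution series (e.g., 9 points, 3-fold) added the day after plating. Four-parameter fitting gave IC50.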

A549 cells = test: Cell proliferation assay (CellTiter-Glo), K-Ras G12S cells; assay type: cell-based; details: for IC50: Homo sapiens, A549, A549 cells (K-Ras G12S), read-out: Inhibition of A549 Cells (IC50); for ratio of IC50 against a G12D cell line to IC50 against a G12S cell line: K-Ras G12D cell line such as GP2D relative to K-Ras G12S cell line such as A549, greater than 1, 2, 3, 4, 5, 10, 15 or even greater, 8640 min
In short: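 A549 cells (K-Ras G12S) in RPMI-1640 with 10% FBS, seeded in standard or ultra-low-attachment plates and dosed next day with a 10-point 3-fold series. Viability read about 6 days later by CellTiter-Glo luminescence. IC50 from four-parameter fit.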

| SMILES | IC50 (A549 cells; bin ≤ 500 nM) [nM] | ratio of IC50 against a G12D cell line to IC50 against a G12S cell line (A549 cells) | IC50 (A549 cells; bin 500 nM to 5 µM) [nM] | IC50 (GP2D cells) [nM] |
| --- | --- | --- | --- | --- |
| Cc1ncn(C(=O)N2CC3CCN(c4nc(OC[C@@]56CCCN5C[C@H](F)C6)nc5c(F)c(-c6ccc(F)c7sc(N)c(C#N)c67)c(Cl)cc45)C3C2)n1 (stereo partly drawn) [Compound A304, 2-amino-4-(6-chloro-8-fluoro-2-(((2R,7aS)-2-fluorotetrahydro-1H-pyrrolizin-7a(5H)-yl)methoxy)-4-(5-(3-methyl-1 H-1,2,4-triazole-1-carbonyl)hexahydropyrrolo[3,4-b]pyrrol-1(2H)-yl)quinazolin-7-yl)-7-fluorobenzo[b]thiophene-3-carbonitrile] | ≤ 500 | greater than 1 | – | 1000 to 10000 |
| N#Cc1c(N)sc2c(F)ccc(-c3c(Cl)cc4c(N5CCC6C5CN6C(=O)n5cncn5)nc(OC[C@@]56CCCN5C[C@H](F)C6)nc4c3F)c12 (stereo partly drawn) [Compound A183, 4-(4-(6-(1H-1,2,4-triazole-1-carbonyl)-2,6-diazabicyclo[3.2.0]heptan-2-yl)-6-chloro-8-fluoro-2-(((2R,7aS)-2-fluorotetrahydro-1H-pyrrolizin-7a(5H)-yl)methoxy)quinazolin-7-yl)-2-amino-7-fluorobenzo[b]thiophene-3-carbonitrile] | ≤ 500 | greater than 1 | – | ≤ 1000 |
| N#CCc1ncn(C(=O)N2CC3(C2)CN(c2nc(OC[C@@]45CCCN4C[C@H](F)C5)nc4c(F)c(-c5ccc(F)c6sc(N)c(C#N)c56)c(Cl)cc24)CCO3)n1 [Compound A110, 2-amino-4-(6-chloro-4-(2-(3-(cyanomethyl)-1H-1,2,4-triazole-1-carbonyl)-5-oxa-2,8-diazaspiro[3.5]nonan-8-yl)-8-fluoro-2-(((2R,7aS)-2-fluorotetrahydro-1H-pyrrolizin-7a(5H)-yl)methoxy)quinazolin-7-yl)-7-fluorobenzo[b]thiophene-3-carbonitrile] | ≤ 500 | greater than 1 | – | 1000 to 10000 |
| Nc1nc2c(-c3c(Cl)cc4c(N5CCN(C(=O)n6cncn6)CC5)nc(OC[C@@]56CCCN5C[C@H](F)C6)nc4c3F)ccc(F)c2s1 [Compound A146, (4-(7-(2-amino-7-fluorobenzo[d]thiazol-4-yl)-6-chloro-8-fluoro-2-(((2R,7aS)-2-fluorotetrahydro-1H-pyrrolizin-7a(5H)-yl)methoxy)quinazolin-4-yl)piperazin-1-yl)(1H-1,2,4-triazol-1-yl)methanone] | – | – | 500 to 5000 | ≤ 1000 |
| C#Cc1c(F)ccc2cc(O)cc(-c3ncc4c(N5CCOCC6(CN(C(=O)n7cnc(C)n7)C6)C5)nc(OC[C@@]56CCCN5C[C@H](F)C6)nc4c3F)c12 [Compound A298, (9-(7-(8-ethynyl-7-fluoro-3-hydroxynaphthalen-1-yl)-8-fluoro-2-(((2R,7aS)-2-fluorotetrahydro-1H-pyrrolizin-7a(5H)-yl)methoxy)pyrido[4,3-d]pyrimidin-4-yl)-6-oxa-2,9-diazaspiro[3.6]decan-2-yl)(3-methyl-1H-1,2,4-triazol-1-yl)methanone] | – | greater than 1 | 500 to 5000 | 1000 to 10000 |
| Cc1nc(C)n(C(=O)N2CC3(C2)CN(c2nc(OC[C@@]45CCCN4C[C@H](F)C5)nc4c(F)c(-c5ccc(F)c6sc(N)c(C#N)c56)c(Cl)cc24)CCO3)n1 [Compound A283, 2-amino-4-(6-chloro-4-(2-(3,5-dimethyl-1H-1,2,4-triazole-1-carbonyl)-5-oxa-2,8-diazaspiro[3.5]nonan-8-yl)-8-fluoro-2-(((2R,7aS)-2-fluorotetrahydro-1H-pyrrolizin-7a(5H)-yl)methoxy)quinazolin-7-yl)-7-fluorobenzo[b]thiophene-3-carbonitrile] | ≤ 500 | – | – | 1000 to 10000 |
| Nc1nc2c(-c3c(Cl)cc4c(N5CCN(C(=O)n6cncn6)CC(F)(F)C5)nc(OC[C@@]56CCCN5C[C@H](F)C6)nc4c3F)ccc(F)c2s1 [Compound A141, (4-(7-(2-amino-7-fluorobenzo[d]thiazol-4-yl)-6-chloro-8-fluoro-2-(((2R,7aS)-2-fluorotetrahydro-1H-pyrrolizin-7a(5H)-yl)methoxy)quinazolin-4-yl)-6,6-difluoro-1,4-diazepan-1-yl)(1H-1,2,4-triazol-1-yl)methanone] | – | – | 500 to 5000 | 1000 to 10000 |

Continued, in another order:

| IC50 (A549 cells; bin ≤ 500 nM) [nM] | ratio of IC50 against a G12D cell line to IC50 against a G12S cell line (A549 cells) | IC50 (A549 cells; bin 500 nM to 5 µM) [nM] | SMILES | IC50 (GP2D cells) [nM] |
| --- | --- | --- | --- | --- |
| ≤ 500 | – | – | N#Cc1c(N)sc2c(F)ccc(-c3c(Cl)cc4c(N5CCCC6(CN(C(=O)n7cncn7)C6)C5)nc(OC[C@@]56CCCN5C[C@H](F)C6)nc4c3F)c12 [Compound A129, 4-(4-(2-(1H-1,2,4-triazole-1-carbonyl)-2,6-diazaspiro[3.5]nonan-6-yl)-6-chloro-8-fluoro-2-(((2R,7aS)-2-fluorotetrahydro-1H-pyrrolizin-7a(5H)-yl)methoxy)quinazolin-7-yl)-2-amino-7-fluorobenzo[b]thiophene-3-carbonitrile] | 1000 to 10000 |
| ≤ 500 | greater than 1 | – | N#Cc1c(N)sc2c(F)ccc(-c3c(Cl)cc4c(N5CCOC6CN(C(=O)n7cncn7)CC65)nc(OC[C@@]56CCCN5C[C@H](F)C6)nc4c3F)c12 (stereo partly drawn) [Compound A218, 4-(4-(6-(1H-1,2,4-triazole-1-carbonyl)hexahydropyrrolo [3,4-b][1,4]oxazin-4(4aH)-yl)-6-chloro-8-fluoro-2-(((2R,7aS)-2-fluorotetrahydro-1H-pyrrolizin-7a(5H)-yl)methoxy)quinazolin-7-yl)-2-amino-7-fluorobenzo[b]thiophene-3-carbonitrile] | 1000 to 10000 |
| ≤ 500 | greater than 1 | – | N#Cc1c(N)sc2c(F)ccc(-c3c(Cl)cc4c(N5CCC6(CN(C(=O)n7cncn7)C6)C5)nc(OC[C@@]56CCCN5C[C@H](F)C6)nc4c3F)c12 [Compound A277, 4-(4-(2-(1H-1,2,4-triazole-1-carbonyl)-2,6-diazaspiro[3.4]octan-6-yl)-6-chloro-8-fluoro-2-(((2R,7aS)-2-fluorotetrahydro-1H-pyrrolizin-7a(5H)-yl)methoxy)quinazolin-7-yl)-2-amino-7-fluorobenzo[b]thiophene-3-carbonitrile] | 1000 to 10000 |
| – | greater than 1 | 500 to 5000 | Nc1nc2c(-c3c(Cl)cc4c(N5CCCC6(CN(C(=O)n7cncn7)C6)C5)nc(OC[C@@]56CCCN5C[C@H](F)C6)nc4c3F)ccc(F)c2s1 [Compound A136, (6-(7-(2-amino-7-fluorobenzo[d]thiazol-4-yl)-6-chloro-8-fluoro-2-(((2R,7aS)-2-fluorotetrahydro-1H-pyrrolizin-7a(5H)-yl)methoxy)quinazolin-4-yl)-2,6-diazaspiro[3.5]nonan-2-yl)(1H-1,2,4-triazol-1-yl)methanone] | 1000 to 10000 |
| – | – | 500 to 5000 | N#Cc1c(N)sc2c(F)ccc(-c3ncc4c(N5CCCC6(CN(C(=O)n7cncn7)C6)C5)nc(OC[C@@]56CCCN5C[C@H](F)C6)nc4c3F)c12 [Compound A134, 4-(4-(2-(1H-1,2,4-triazole-1-carbonyl)-2,6-diazaspiro[3.5]nonan-6-yl)-8-fluoro-2-(((2R,7aS)-2-fluorotetrahydro-1H-pyrrolizin-7a(5H)-yl)methoxy)pyrido[4,3-d]pyrimidin-7-yl)-2-amino-7-fluorobenzo[b]thiophene-3-carbonitrile] | 1000 to 10000 |
